Here are results for one compound from US20230021329A1, “NANOSTRUCTURED BINARY GEL COMPOSITION AND USE THEREOF” (Veri Nano Inc., priority 2019, published 2023).

The nature of the data set: Release study of agents from the gel. In kind it is physicochemical.
The mark [1] stands for this setting: release from hydrogel composition #4, 10 h in PBS.

Protocol: 25 ml of PBS was added to each of the beakers. The beakers were put on a plate shaker (Delfia 1296-004) and shaken at the “low” setting for 10 h. The liquid was centrifuged at 21130 rcf for 10 min, and the supernatants were taken for analysis.
BSA Protein release from the nanoparticles was quantified via nanodrop spectrophotometer to determine the concentration of protein in the supernatant, after creating a nanoparticle pellet on centrifugation, all these after 10 hours of incubation in PBS at room temperature.
The concentration released of the Rhodamine B was determined by talking the supernatant after 10 h, centrifuged and diluted the solution by 10×. Subsequently, the absorbance was measured by using a plate reader (Varioskan Lux) and compared to a calibration curve.

For `CCN(CC)c1ccc2c(-c3ccccc3C(=O)O)c3ccc(=[N+](CC)CC)cc-3oc2c1.[Cl-]` [Rhodamine B], under setting [1], the amount released was found to be 6.3 mg and the percent release is reported as 5.7%. The compound also came in with a concentration in supernatant (release from hydrogel composition #4, supernatant after 10 h, absorbance vs calibration curve) of 252 μ/ml.
